Test results from paper PMC4733634 (Journal of the American Chemical Society, 2015).
Values after ≈ are worked out from the molar mass of the structure shown.

Key:
[1] = test system: S. aureus quality control strain 43300 (ATCC); assay: microbe, parasite or virus in culture; type: cell-based; settings: Staphylococcus aureus, ATCC43300|MRSA, 18 h, read-out: MIC wild-type S.aureus
[2] = test system: lab generated F98Y mutant strain; assay: Minimum inhibitory concentration, micro-dilution broth assay, F98Y mutant strain; type: cell-based, S. aureus; settings: Staphylococcus aureus, 18 h, read-out: MIC Sa(F98Y)

Compound COc1cc(Cc2cnc(N)nc2N)cc(OC)c1OC [TMP, trimethoprim] has an MIC [1] of 0.312 µg/mL (≈ 1.08 µM) and an MIC [2] of 10 µg/mL (≈ 34.4 µM).
